Assays:
Cannabinoid receptor 1 = Cannabinoid receptor 1 (Homo sapiens, UniProt P21554); type: functional, cell-based
[1] = biological target: T1, Alpha-2A adrenergic receptor (Homo sapiens, UniProt P08913); type: functional, cell-based
T1 sequence (P08913 whole entry): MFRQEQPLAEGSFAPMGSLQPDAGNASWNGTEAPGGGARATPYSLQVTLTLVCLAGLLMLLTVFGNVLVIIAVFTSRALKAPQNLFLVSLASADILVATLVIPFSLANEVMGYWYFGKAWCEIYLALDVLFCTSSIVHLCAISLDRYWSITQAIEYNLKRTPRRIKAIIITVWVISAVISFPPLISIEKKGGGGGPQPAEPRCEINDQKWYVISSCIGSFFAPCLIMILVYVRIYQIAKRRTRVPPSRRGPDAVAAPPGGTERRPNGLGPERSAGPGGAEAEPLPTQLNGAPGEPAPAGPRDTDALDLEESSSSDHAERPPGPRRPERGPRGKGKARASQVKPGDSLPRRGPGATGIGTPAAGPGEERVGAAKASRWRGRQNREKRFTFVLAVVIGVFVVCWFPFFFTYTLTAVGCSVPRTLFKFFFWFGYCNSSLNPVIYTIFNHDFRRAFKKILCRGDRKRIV

[2] = biological target: Beta-2 adrenergic receptor (Homo sapiens, UniProt P07550)
Chain of Beta-2 adrenergic receptor (P07550 whole entry): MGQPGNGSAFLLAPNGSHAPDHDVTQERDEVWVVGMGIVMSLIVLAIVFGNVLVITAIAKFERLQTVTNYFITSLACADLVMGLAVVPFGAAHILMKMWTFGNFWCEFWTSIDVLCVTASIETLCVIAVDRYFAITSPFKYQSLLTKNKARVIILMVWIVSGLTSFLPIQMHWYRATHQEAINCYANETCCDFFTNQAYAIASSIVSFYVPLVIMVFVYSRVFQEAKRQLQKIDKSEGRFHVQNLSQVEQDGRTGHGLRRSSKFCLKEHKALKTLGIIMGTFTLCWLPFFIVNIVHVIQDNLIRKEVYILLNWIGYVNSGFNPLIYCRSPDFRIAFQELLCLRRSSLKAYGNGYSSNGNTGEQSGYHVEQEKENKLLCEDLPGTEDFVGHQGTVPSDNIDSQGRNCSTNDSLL

[3] = biological target: 5-hydroxytryptamine receptor 2B (Homo sapiens, UniProt P41595); type: functional, cell-based
Chain of 5-hydroxytryptamine receptor 2B (P41595 whole entry): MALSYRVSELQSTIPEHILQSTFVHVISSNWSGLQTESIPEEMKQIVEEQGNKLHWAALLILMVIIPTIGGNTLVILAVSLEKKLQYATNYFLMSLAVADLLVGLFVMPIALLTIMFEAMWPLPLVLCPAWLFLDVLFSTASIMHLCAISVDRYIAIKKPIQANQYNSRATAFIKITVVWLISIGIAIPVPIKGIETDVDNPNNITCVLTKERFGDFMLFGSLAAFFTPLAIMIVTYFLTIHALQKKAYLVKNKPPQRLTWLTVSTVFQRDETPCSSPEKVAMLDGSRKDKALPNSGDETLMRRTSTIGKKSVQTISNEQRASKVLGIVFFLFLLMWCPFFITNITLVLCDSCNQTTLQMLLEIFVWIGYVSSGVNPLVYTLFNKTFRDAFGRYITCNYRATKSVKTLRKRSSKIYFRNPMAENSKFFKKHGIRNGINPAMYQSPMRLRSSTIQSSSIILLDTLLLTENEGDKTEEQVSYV

Adenosine receptor A1 = biological target: T2, Adenosine receptor A1 (Homo sapiens, UniProt P30542)
T2 sequence (P30542 whole entry): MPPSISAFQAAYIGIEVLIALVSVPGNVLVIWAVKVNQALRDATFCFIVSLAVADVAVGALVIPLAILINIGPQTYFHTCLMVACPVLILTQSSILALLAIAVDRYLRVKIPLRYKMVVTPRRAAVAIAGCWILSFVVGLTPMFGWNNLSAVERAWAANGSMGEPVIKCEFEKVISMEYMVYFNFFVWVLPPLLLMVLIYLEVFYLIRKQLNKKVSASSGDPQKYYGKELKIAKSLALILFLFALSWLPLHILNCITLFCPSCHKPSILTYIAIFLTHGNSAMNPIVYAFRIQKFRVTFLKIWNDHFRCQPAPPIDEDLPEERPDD

Estrogen receptor = biological target: T3, Estrogen receptor (Homo sapiens, UniProt P03372)
T3 sequence (P03372 whole entry): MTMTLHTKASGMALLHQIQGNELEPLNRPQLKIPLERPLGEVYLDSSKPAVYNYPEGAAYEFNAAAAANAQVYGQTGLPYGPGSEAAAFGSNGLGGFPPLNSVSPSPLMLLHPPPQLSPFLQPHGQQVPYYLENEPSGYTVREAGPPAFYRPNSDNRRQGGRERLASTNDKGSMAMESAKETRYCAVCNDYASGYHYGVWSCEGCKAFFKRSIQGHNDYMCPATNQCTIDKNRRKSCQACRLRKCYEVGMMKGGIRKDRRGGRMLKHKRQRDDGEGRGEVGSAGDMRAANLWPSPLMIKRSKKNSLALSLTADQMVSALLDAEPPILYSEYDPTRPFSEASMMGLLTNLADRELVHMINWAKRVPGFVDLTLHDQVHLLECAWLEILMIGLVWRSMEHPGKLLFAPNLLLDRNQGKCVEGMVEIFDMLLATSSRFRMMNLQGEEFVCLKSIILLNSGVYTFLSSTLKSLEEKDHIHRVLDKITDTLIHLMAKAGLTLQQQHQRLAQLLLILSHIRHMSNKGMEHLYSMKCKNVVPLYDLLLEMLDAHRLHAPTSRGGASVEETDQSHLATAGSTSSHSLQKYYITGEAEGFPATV

[4] = biological target: Sodium-dependent noradrenaline transporter (Homo sapiens, UniProt P23975)
Chain of Sodium-dependent noradrenaline transporter (P23975 whole entry): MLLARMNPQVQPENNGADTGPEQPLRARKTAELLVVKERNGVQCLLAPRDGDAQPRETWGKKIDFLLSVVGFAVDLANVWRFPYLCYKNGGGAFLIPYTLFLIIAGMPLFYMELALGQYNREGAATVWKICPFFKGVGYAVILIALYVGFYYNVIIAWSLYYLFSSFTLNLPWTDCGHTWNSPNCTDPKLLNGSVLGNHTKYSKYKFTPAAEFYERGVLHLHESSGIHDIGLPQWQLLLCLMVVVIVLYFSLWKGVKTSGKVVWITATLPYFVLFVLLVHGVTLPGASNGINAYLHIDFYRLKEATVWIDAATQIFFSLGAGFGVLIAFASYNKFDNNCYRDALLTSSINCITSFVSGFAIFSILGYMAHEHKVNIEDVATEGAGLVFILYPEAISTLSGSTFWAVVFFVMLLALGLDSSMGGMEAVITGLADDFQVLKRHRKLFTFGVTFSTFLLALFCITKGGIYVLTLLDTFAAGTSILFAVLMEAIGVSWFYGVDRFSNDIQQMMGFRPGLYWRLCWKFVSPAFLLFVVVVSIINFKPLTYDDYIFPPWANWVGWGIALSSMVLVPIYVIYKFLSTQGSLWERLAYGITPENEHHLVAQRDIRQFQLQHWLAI

Adenosine receptor A3 = biological target: T4, Adenosine receptor A3 (Homo sapiens, UniProt P0DMS8)
T4 sequence (P0DMS8 whole entry): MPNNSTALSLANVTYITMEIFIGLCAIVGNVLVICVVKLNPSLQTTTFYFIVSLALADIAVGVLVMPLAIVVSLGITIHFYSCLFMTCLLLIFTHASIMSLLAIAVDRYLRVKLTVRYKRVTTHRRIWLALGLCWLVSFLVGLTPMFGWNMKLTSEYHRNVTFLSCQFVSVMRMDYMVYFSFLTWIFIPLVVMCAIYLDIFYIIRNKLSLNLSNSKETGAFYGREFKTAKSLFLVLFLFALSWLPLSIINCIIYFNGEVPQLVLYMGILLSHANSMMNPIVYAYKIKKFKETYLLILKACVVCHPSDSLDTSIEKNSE

[5] = biological target: T5, 5-hydroxytryptamine receptor 1A (Homo sapiens, UniProt P08908); type: functional, cell-based
T5 sequence (P08908 whole entry): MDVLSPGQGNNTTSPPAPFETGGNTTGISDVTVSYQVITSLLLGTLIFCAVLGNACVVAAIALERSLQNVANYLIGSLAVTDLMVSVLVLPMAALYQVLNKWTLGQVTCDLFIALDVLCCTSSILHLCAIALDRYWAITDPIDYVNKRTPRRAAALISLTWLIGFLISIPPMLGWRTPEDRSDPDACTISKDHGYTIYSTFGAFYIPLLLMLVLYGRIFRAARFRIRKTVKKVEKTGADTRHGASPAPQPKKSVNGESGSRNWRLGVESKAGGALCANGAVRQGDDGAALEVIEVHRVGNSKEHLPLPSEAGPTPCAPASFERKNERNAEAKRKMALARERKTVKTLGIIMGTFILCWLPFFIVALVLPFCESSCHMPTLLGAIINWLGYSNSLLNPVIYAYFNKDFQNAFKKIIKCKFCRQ

[6] = biological target: T6, 5-hydroxytryptamine receptor 2C (Homo sapiens, UniProt P28335)
T6 sequence (P28335 whole entry): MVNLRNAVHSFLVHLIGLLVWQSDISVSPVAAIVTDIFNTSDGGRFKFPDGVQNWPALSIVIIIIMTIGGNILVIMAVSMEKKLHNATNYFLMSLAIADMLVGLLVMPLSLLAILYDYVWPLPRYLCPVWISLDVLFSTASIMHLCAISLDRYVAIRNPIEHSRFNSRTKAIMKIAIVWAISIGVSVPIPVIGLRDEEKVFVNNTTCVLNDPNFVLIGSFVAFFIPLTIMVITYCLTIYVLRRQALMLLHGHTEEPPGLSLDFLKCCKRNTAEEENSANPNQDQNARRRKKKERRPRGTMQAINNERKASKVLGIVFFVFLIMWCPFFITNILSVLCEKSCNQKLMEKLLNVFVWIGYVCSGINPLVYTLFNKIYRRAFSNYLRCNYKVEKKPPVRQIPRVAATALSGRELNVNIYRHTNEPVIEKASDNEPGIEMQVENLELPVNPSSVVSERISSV

[7] = biological target: Voltage-gated inwardly rectifying potassium channel KCNH2 (Homo sapiens, UniProt Q12809); type: functional; details: read-out: AC50
Chain of Voltage-gated inwardly rectifying potassium channel KCNH2 (Q12809 whole entry): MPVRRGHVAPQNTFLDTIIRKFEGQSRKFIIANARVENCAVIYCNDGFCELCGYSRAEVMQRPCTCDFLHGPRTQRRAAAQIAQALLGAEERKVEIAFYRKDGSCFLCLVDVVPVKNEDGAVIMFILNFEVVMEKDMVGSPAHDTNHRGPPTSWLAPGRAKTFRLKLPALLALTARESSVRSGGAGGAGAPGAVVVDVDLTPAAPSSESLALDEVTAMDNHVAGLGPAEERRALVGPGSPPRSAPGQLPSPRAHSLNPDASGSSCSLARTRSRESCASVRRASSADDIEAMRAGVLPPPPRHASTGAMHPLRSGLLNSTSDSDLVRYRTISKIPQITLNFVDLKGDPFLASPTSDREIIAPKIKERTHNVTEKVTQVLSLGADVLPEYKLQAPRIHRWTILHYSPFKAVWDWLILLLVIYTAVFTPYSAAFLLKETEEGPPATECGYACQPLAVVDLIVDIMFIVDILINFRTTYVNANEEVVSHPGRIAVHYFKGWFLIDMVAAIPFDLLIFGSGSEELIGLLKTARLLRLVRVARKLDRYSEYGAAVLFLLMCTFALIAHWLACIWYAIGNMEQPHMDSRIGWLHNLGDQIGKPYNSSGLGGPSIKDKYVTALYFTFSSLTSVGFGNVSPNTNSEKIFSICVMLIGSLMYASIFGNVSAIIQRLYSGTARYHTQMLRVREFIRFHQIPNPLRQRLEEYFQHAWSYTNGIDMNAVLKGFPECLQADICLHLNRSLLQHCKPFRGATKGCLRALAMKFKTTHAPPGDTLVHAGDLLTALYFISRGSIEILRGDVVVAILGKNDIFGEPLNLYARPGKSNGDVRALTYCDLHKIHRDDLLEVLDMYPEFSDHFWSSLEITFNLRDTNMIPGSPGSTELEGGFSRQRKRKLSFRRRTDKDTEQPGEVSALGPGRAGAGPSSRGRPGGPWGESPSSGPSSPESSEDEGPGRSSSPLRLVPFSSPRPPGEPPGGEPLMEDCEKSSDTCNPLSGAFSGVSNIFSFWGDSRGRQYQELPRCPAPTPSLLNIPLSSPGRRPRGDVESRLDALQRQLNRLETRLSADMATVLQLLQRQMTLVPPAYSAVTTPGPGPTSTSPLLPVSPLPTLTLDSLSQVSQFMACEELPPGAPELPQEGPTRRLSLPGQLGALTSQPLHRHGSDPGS
Further: assay procedure not described here.

Chain of Cannabinoid receptor 1 (P21554 whole entry): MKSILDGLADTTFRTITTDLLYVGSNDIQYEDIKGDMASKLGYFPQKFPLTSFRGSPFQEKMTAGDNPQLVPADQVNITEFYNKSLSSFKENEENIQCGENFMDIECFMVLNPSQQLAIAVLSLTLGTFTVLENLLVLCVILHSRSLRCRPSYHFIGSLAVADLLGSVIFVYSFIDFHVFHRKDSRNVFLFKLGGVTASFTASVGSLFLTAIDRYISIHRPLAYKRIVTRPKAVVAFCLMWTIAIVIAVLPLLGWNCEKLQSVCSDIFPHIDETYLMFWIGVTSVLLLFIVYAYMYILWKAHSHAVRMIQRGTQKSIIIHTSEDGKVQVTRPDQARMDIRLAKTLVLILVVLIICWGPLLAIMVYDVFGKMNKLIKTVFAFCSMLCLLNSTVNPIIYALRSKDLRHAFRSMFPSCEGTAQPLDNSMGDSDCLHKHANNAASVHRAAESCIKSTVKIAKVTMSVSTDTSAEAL

| Compound | AC50 (Cannabinoid receptor 1) | AC50 [1] | AC50 [2] | AC50 [3] | AC50 (Adenosine receptor A1) | AC50 (Estrogen receptor) | AC50 [4] | AC50 (Adenosine receptor A3) | AC50 [5] | AC50 [6] | AC50 [7] |
| --- | --- | --- | --- | --- | --- | --- | --- | --- | --- | --- | --- |
| CN1CC(=O)N2[C@H](c3ccc4c(c3)OCO4)c3[nH]c4ccccc4c3C[C@@H]2C1=O | > 30 µM | > 10 µM | > 10 µM | > 10 µM | > 30 µM | > 30 µM | > 30 µM | > 30 µM | > 10 µM | > 30 µM | > 30 µM |
| O=C(C[S+]([O-])C(c1ccccc1)c1ccccc1)NO (centres undefined) | > 30 µM | > 30 µM | > 30 µM | > 30 µM | > 30 µM | > 30 µM | > 30 µM | > 30 µM | > 30 µM | > 30 µM | > 30 µM |
| COc1ccc2cccc(CCNC(C)=O)c2c1 [AGOMELATINE] | > 30 µM | > 30 µM | > 10 µM | 2.07 µM | > 30 µM | > 30 µM | > 10 µM | > 30 µM | > 10 µM |  | > 30 µM |
| CN1C(=O)COc2c(C(=O)NC3CN4CCC3CC4)cc(Cl)cc21 (centres undefined) [AZASETRON] | > 30 µM | > 30 µM | > 30 µM | > 30 µM | > 30 µM | > 30 µM | > 30 µM | > 30 µM | > 30 µM | > 30 µM | 8.5 µM |
| NC(CO)C(=O)NNCc1ccc(O)c(O)c1O (centres undefined) [BENSERAZIDE] | > 30 µM | > 10 µM | > 10 µM | > 10 µM | > 30 µM | 1.72 µM | > 30 µM | 21.6 µM | > 10 µM | > 30 µM | > 30 µM |
| Cc1cc2c(OCC(CNC(C)(C)C)OC(=O)c3ccccc3)cccc2[nH]1 (centres undefined) [BOPINDOLOL] | > 30 µM | > 30 µM | 0.0064 µM | 19 µM | > 30 µM | > 30 µM | 10.3 µM | > 30 µM | 0.028 µM | > 30 µM | 0.49 µM |
| CCC(C(=O)O)c1ccc(CC(C)C)cc1 (centres undefined) [BUTIBUFEN] | > 30 µM | > 30 µM | > 30 µM | > 30 µM | > 30 µM | > 30 µM | > 30 µM | > 30 µM | > 30 µM | > 30 µM | > 30 µM |
| CN(C)C(=O)OC1N=C(c2ccccc2)c2cc(Cl)ccc2N(C)C1=O (centres undefined) [CAMAZEPAM] | > 30 µM | > 10 µM | > 10 µM | 18 µM | > 30 µM | > 30 µM | > 10 µM | > 30 µM | > 10 µM | > 30 µM | > 30 µM |
| CCCCCOC(=O)Nc1nc(=O)n([C@@H]2O[C@H](C)[C@@H](O)[C@H]2O)cc1F [CAPECITABINE] | > 30 µM | > 30 µM |  | > 30 µM | > 30 µM | > 30 µM | > 30 µM | > 30 µM | > 30 µM | > 30 µM | > 30 µM |
| CC(C)C(=O)OCC(=O)[C@@]12O[C@H](C3CCCCC3)O[C@@H]1C[C@H]1[C@@H]3CCC4=CC(=O)C=C[C@]4(C)[C@H]3[C@@H](O)C[C@@]12C [CICLESONIDE] | > 30 µM | > 10 µM | > 10 µM | > 10 µM | > 30 µM | > 30 µM | > 10 µM | 4.2 µM | > 10 µM | > 30 µM | > 30 µM |
| CC(C)(Oc1ccc(C2CC2(Cl)Cl)cc1)C(=O)O (centres undefined) [CIPROFIBRATE] | > 30 µM | > 30 µM | > 30 µM | > 30 µM | > 30 µM | > 30 µM | > 30 µM | > 30 µM | > 30 µM | > 30 µM | > 30 µM |
| Cc1c(O)c(=O)ccn1C [DEFERIPRONE] | > 30 µM | > 30 µM | > 30 µM | > 30 µM | > 30 µM | > 30 µM | > 30 µM | > 30 µM | > 30 µM | > 30 µM | > 30 µM |
| Cc1cccc(C)c1NC(=O)C1CCCCN1C (centres undefined) [MEPIVACAINE] | > 30 µM | > 30 µM |  | > 30 µM | > 30 µM | > 30 µM | > 30 µM | > 30 µM | > 30 µM | > 30 µM | > 30 µM |
| CCCCCCC(C)(C)c1cc(O)c2c(c1)OC(C)(C)C1CCC(=O)CC21 (centres undefined) [NABILONE] | 0.168 µM | > 30 µM |  | > 30 µM | > 30 µM | > 30 µM | > 30 µM | 9.1 µM | > 30 µM | > 30 µM | > 30 µM |
| Nc1nc2ccc(OC(F)(F)F)cc2s1 [RILUZOLE] | > 30 µM | > 30 µM |  | > 30 µM | > 30 µM | > 30 µM | 19 µM | > 30 µM | > 30 µM | > 30 µM |  |
| Cc1ccc(-c2nc3ccc(C)cn3c2CC(=O)N(C)C)cc1 [ZOLPIDEM] | > 30 µM | > 30 µM | > 30 µM | 29 µM | > 30 µM | > 30 µM | > 30 µM | > 30 µM | > 10 µM | > 30 µM |  |

From ChEMBL document CHEMBL5291721, “A preclinical secondary pharmacology resource illuminates target-adverse drug reaction associations of marketed drugs” (Nat Commun, 2023)
